Experimental data: patent US6420373B1, “9-N-Bicyclic nuceoside agents useful as selective inhibitors of proinflammatory cytokines” (Merrell Pharmaceuticals Inc., priority 1993, dated 2002)
Structures can show the parent of a compound that is named as a salt.

How the values were obtained:
TNF-α = assay: LPS-stimulated human monocyte-derived macrophage TNF-α inhibition assay; format: cell-based; settings: 18 hours of culture
Method: Monocyte-derived macrophages stimulated with bacterial lipopolysaccharide (LPS) produce high levels of TNF-α (25.8+4.2 ηg/mL) during 18 hours of culture.

[1] = test system: D-galactosamine animal model of septic shock; assay: D-galactosamine animal model of septic shock (protection against lethal effects of LPS); format: in vivo; settings: treated about 1 hour before i.p. challenge of D-galactosamine and LPS, by 18 hours after challenge, test compound 100 mg/kg i.p.

| SMILES | IC50 (TNF-α; monocyte-derived macrophages from human peripheral blood, LPS-stimulated, dose response 100 μM-0.1 μM, read-out: IC50 for inhibiting TNF-α levels) [nM] | protection ([1]; mice) [%] | mice killed [1] | inhibition at 50 µM (TNF-α; Homo sapiens, at 50 μM, LPS-stimulated monocyte-derived macrophages, read-out: inhibition of TNF-α levels) [%] |
| --- | --- | --- | --- | --- |
| Nc1ncnc2c1ncn2[C@H]1CC[C@H]2[C@@H]1CC[C@H]2O (racemic) [(±)-Exo-2-adenyl-endo-6-hydroxybicyclo[3,3,0]octane Dihydrochloride] | 143 | 100 | 0 out of 8 | – |
| CC(=O)CCCCn1c(=O)c2c(ncn2C)n(C)c1=O [Pentoxifylline, reference compound] | – | – | – | 73.5 |
